Results reported in US4875922A, “Pyrimidine derivatives” (Imperial Chemical Industries PLC, priority 1986, dated 1989).
Marks after values point to notes of the source that are not given here.

Columns and labels:
Tomato = experiment: Whole plant screen for plant growth regulator activity, tomato (TO); assay type: in vivo, Tomato (Ailsa Craig); conditions: 4000 ppm (4 kg/ha), visual score after 2-6 weeks
Method: (§1) The plant species used in this screen are presented in Table II with the leaf stage at which they were sprayed. Each chemical was applied at 4000 ppm (4 kg/ha in a 1000 l/ha field volume) using a tracksprayer and a SS8004E (Teejet) nozzle.
(§2) After spray the plants were grown in a glasshouse with 25° C. day/22° C. night temperatures and supplementary lighting was supplied when necessary (from mercury vapour lamps), to provide a 16 hour photoperiod. The exception to this were the temperate cereals, wheat and barley which were grown in 16° C. day/13° C. night temperatures.
(§3) After 2-6 weeks in the glasshouse, depending on the time of year, the plants were visually assessed for morphological characteristics. Formulation blanks were used as controls to assess the plants.
(§4) Additional compounds in Table I were tested for plant growth regulator activity using the method of Example 60 except that Tomato was included in the test as an additional species. Tomato, Ailsa Craig, was grown in a single 3 inch pot in peat and treated at the 2 to 21/2 leaves growth stage. The results were presented in Table IV in which Tomato is indicated by the code TO and the Key is otherwise as for Table III.
An astrisk (*) after a score under "T" (tillering) indicated a decrease in tillering.

Wheat = experiment: Whole plant screen for plant growth regulator activity, wheat (WW); assay type: in vivo, Wheat (Timmo); conditions: for G = Greening effect / I = Interligular or internodal length reduction / R = Retardation / T = Tillering or side shooting: WW, 4000 ppm (4 kg/ha), visual score after 2-6 weeks; for T = Tillering or side shooting: * = decrease in tillering
Method: (§5) Compounds 1 to 3 in Table 1 were tested for plant growth regulator activity against five species for various growth effects relevant to plant growth regulation.
as §1, §2, §3, §4

Barley = experiment: Whole plant screen for plant growth regulator activity, barley (BR); assay type: in vivo, Barley (Atem); conditions: BR, 4000 ppm (4 kg/ha), visual score after 2-6 weeks; for T = Tillering or side shooting: * = decrease in tillering
Method: as §5, §1, §2, §3, §4

Apple = experiment: Whole plant screen for plant growth regulator activity, apple (AP); assay type: in vivo, Apple (Red Delicious); conditions: 4000 ppm (4 kg/ha), visual score after 2-6 weeks
Method: as §5, §1, §2, §3, §4

Rice = experiment: Whole plant screen for plant growth regulator activity, rice (RC); assay type: in vivo, Rice (Ishikari); conditions: 4000 ppm (4 kg/ha), visual score after 2-6 weeks; for T = Tillering or side shooting: * = decrease in tillering
Method: as §5, §1, §2, §3, §4

SMILES: CCC(Cl)CC#CC(O)(c1cncnc1)C(C)(C)C (centres unmarked) [Compound 38]
- G = Greening effect (Tomato): 2 (31-60%)
- I = Interligular or internodal length reduction (Tomato): 3 (61-100%)
- R = Retardation (Tomato): 3 (61-100%)
- G = Greening effect (Wheat): 2 (31-60%)
- I = Interligular or internodal length reduction (Wheat): 3 (61-100%)
- R = Retardation (Wheat): 2 (31-60%)
- T = Tillering or side shooting (Wheat): 1 (10-30%)
- G = Greening effect (Barley): 3 (61-100%)
- I = Interligular or internodal length reduction (Barley): 3 (61-100%)
- R = Retardation (Barley): 3 (61-100%)
- T = Tillering or side shooting (Barley): 3 (61-100%)

SMILES: CC(C)CCC(O)(c1cncnc1)C(C)(C)C (centres unmarked) [Compound 29]
- G = Greening effect (Apple): 1 (10-30%)
- I = Interligular or internodal length reduction (Apple): 2 (31-60%)
- R = Retardation (Apple): 2 (31-60%)
- G = Greening effect (Tomato): 1 (10-30%)
- I = Interligular or internodal length reduction (Tomato): 2 (31-60%)
- R = Retardation (Tomato): 2 (31-60%)
- G = Greening effect (Wheat): 2 (31-60%)
- I = Interligular or internodal length reduction (Wheat): 3 (61-100%)
- R = Retardation (Wheat): 2 (31-60%)
- T = Tillering or side shooting (Wheat): 2 (31-60%)
- I = Interligular or internodal length reduction (Barley): 2 (31-60%)
- R = Retardation (Barley): 2 (31-60%)
- T = Tillering or side shooting (Barley): 2 (31-60%)
- G = Greening effect (Rice): 1 (10-30%)
- I = Interligular or internodal length reduction (Rice): 3 (61-100%)
- R = Retardation (Rice): 2 (31-60%)
- T = Tillering or side shooting (Rice): 1 (10-30%)

SMILES: CC(C)(C)C(O)(C#CCCCl)c1cncnc1 (centres unmarked) [Compound 36]
- G = Greening effect (Tomato): 2 (31-60%)
- I = Interligular or internodal length reduction (Tomato): 2 (31-60%)
- R = Retardation (Tomato): 2 (31-60%)
- G = Greening effect (Wheat): 2 (31-60%)
- I = Interligular or internodal length reduction (Wheat): 3 (61-100%)
- R = Retardation (Wheat): 2 (31-60%)
- T = Tillering or side shooting (Wheat): 1 (10-30%)
- G = Greening effect (Barley): 3 (61-100%)
- I = Interligular or internodal length reduction (Barley): 3 (61-100%)
- R = Retardation (Barley): 3 (61-100%)
- T = Tillering or side shooting (Barley): 3 (61-100%)

SMILES: CC(C)CC#CC(O)(c1cncnc1)C1CC1 (centres unmarked) [Compound 56]
- G = Greening effect (Tomato): 1 (10-30%)
- I = Interligular or internodal length reduction (Tomato): 1 (10-30%)
- R = Retardation (Tomato): 1 (10-30%)
- G = Greening effect (Wheat): 2 (31-60%)
- I = Interligular or internodal length reduction (Wheat): 3 (61-100%)
- R = Retardation (Wheat): 2 (31-60%)
- T = Tillering or side shooting (Wheat): 1 (10-30%)
- G = Greening effect (Barley): 3 (61-100%)
- I = Interligular or internodal length reduction (Barley): 3 (61-100%)
- R = Retardation (Barley): 3 (61-100%)
- T = Tillering or side shooting (Barley): 3 (61-100%)

SMILES: CC(C)C(O)(CCC(C)(C)C)c1cncnc1 (centres unmarked) [Compound 20]
- G = Greening effect (Apple): 2 (31-60%)
- I = Interligular or internodal length reduction (Apple): 3 (61-100%)
- R = Retardation (Apple): 3 (61-100%)
- G = Greening effect (Tomato): 2 (31-60%)
- I = Interligular or internodal length reduction (Tomato): 3 (61-100%)
- R = Retardation (Tomato): 3 (61-100%)
- G = Greening effect (Wheat): 2 (31-60%)
- I = Interligular or internodal length reduction (Wheat): 3 (61-100%)
- R = Retardation (Wheat): 3 (61-100%)
- G = Greening effect (Barley): 1 (10-30%)
- I = Interligular or internodal length reduction (Barley): 2 (31-60%)
- R = Retardation (Barley): 2 (31-60%)
- G = Greening effect (Rice): 2 (31-60%)
- I = Interligular or internodal length reduction (Rice): 3 (61-100%)
- R = Retardation (Rice): 2 (31-60%)
- T = Tillering or side shooting (Rice): 3 (61-100%)

SMILES: CC(C)CCCCC(O)(c1cncnc1)C(C)C (centres unmarked) [Compound 22]
- I = Interligular or internodal length reduction (Apple): 1 (10-30%)
- R = Retardation (Apple): 1 (10-30%)
- G = Greening effect (Tomato): 2 (31-60%)
- I = Interligular or internodal length reduction (Tomato): 2 (31-60%)
- R = Retardation (Tomato): 2 (31-60%)
- T = Tillering or side shooting (Tomato; * = decrease in tillering): 1 (10-30%)
- G = Greening effect (Wheat): 2 (31-60%)
- I = Interligular or internodal length reduction (Wheat): 2 (31-60%)
- R = Retardation (Wheat): 2 (31-60%)
- T = Tillering or side shooting (Wheat): 1 (10-30%)
- I = Interligular or internodal length reduction (Barley): 1 (10-30%)
- R = Retardation (Barley): 1 (10-30%)

SMILES: CC(C)(C)C(O)(C#CCCCCCl)c1cncnc1 (centres unmarked) [Compound 37]
- G = Greening effect (Wheat): 2 (31-60%)
- I = Interligular or internodal length reduction (Wheat): 3 (61-100%)
- R = Retardation (Wheat): 2 (31-60%)
- T = Tillering or side shooting (Wheat): 1 (10-30%)
- G = Greening effect (Barley): 3 (61-100%)
- I = Interligular or internodal length reduction (Barley): 3 (61-100%)
- R = Retardation (Barley): 3 (61-100%)
- T = Tillering or side shooting (Barley): 3 (61-100%)

SMILES: CCCCCCC(O)(c1cncnc1)C(C)(C)C (centres unmarked) [Compound 30]
- I = Interligular or internodal length reduction (Apple): 2 (31-60%)
- R = Retardation (Apple): 2 (31-60%)
- G = Greening effect (Tomato): 2 (31-60%)
- I = Interligular or internodal length reduction (Tomato): 2 (31-60%)
- R = Retardation (Tomato): 2 (31-60%)
- G = Greening effect (Wheat): 2 (31-60%)
- I = Interligular or internodal length reduction (Wheat): 3 (61-100%)
- R = Retardation (Wheat): 3 (61-100%)
- T = Tillering or side shooting (Wheat): 3 (61-100%)
- G = Greening effect (Barley): 1 (10-30%)
- I = Interligular or internodal length reduction (Barley): 3 (61-100%)
- R = Retardation (Barley): 2 (31-60%)
- T = Tillering or side shooting (Barley): 2 (31-60%)
- G = Greening effect (Rice): 2 (31-60%)
- I = Interligular or internodal length reduction (Rice): 3 (61-100%)
- R = Retardation (Rice): 2 (31-60%)
- T = Tillering or side shooting (Rice): 3 (61-100%)

SMILES: CC(C)(C)/C=C/C(O)(c1cncnc1)C(C)(C)C (centres unmarked) [Compound 39]
- G = Greening effect (Tomato): 2 (31-60%)
- I = Interligular or internodal length reduction (Tomato): 3 (61-100%)
- R = Retardation (Tomato): 3 (61-100%)
- G = Greening effect (Wheat): 1 (10-30%)
- I = Interligular or internodal length reduction (Wheat): 3 (61-100%)
- R = Retardation (Wheat): 3 (61-100%)
- T = Tillering or side shooting (Wheat): 2 (31-60%)
- I = Interligular or internodal length reduction (Barley): 3 (61-100%)
- R = Retardation (Barley): 3 (61-100%)
- T = Tillering or side shooting (Barley): 3 (61-100%)

SMILES: CCCCCCCC(O)(c1cncnc1)C(C)C (centres unmarked) [Compound 26]
- G = Greening effect (Tomato): 1 (10-30%)
- I = Interligular or internodal length reduction (Tomato): 1 (10-30%)
- R = Retardation (Tomato): 2 (31-60%)
- G = Greening effect (Wheat): 1 (10-30%)
- I = Interligular or internodal length reduction (Wheat): 1 (10-30%)
- R = Retardation (Wheat): 2 (31-60%)
- T = Tillering or side shooting (Barley): 2 (31-60%)

SMILES: CCCCC(O)(c1cncnc1)C(C)(C)C (centres unmarked) [Compound 35]
- I = Interligular or internodal length reduction (Tomato): 2 (31-60%)
- R = Retardation (Tomato): 2 (31-60%)
- A = Apical damage (Wheat; 4000 ppm): 2*
- T = Tillering or side shooting (Barley): 3 (61-100%)

SMILES: CCC(C)CCCC(O)(c1cncnc1)C(C)C (centres unmarked) [Compound 21]
- I = Interligular or internodal length reduction (Apple): 2 (31-60%)
- R = Retardation (Apple): 2 (31-60%)
- G = Greening effect (Tomato): 2 (31-60%)
- I = Interligular or internodal length reduction (Tomato): 2 (31-60%)
- R = Retardation (Tomato): 2 (31-60%)
- G = Greening effect (Wheat): 2 (31-60%)
- I = Interligular or internodal length reduction (Wheat): 2 (31-60%)
- R = Retardation (Wheat): 2 (31-60%)
- G = Greening effect (Barley): 1 (10-30%)
- I = Interligular or internodal length reduction (Barley): 3 (61-100%)
- R = Retardation (Barley): 2 (31-60%)
- T = Tillering or side shooting (Barley): 3 (61-100%)
- G = Greening effect (Rice): 1 (10-30%)
- I = Interligular or internodal length reduction (Rice): 2 (31-60%)
- R = Retardation (Rice): 2 (31-60%)
- T = Tillering or side shooting (Rice): 2 (31-60%)

SMILES: CC(C)(C)/C=C/C(O)(c1cncnc1)C(C)(C)CF (centres unmarked) [Compound 49, 3-fluoro-2,2-dimethyl-1-(3,3-dimethylbut-1-ene)-1-(pyrimidin-5-yl)-propan-1-ol]
- G = Greening effect (Tomato): 1 (10-30%)
- I = Interligular or internodal length reduction (Tomato): 1 (10-30%)
- R = Retardation (Tomato): 2 (31-60%)
- G = Greening effect (Wheat): 1 (10-30%)
- I = Interligular or internodal length reduction (Wheat): 2 (31-60%)
- R = Retardation (Wheat): 2 (31-60%)
- T = Tillering or side shooting (Wheat): 1 (10-30%)
- T = Tillering or side shooting (Barley): 3 (61-100%)

SMILES: CC(C)C(O)(CC1CCCC1)c1cncnc1 (centres unmarked) [Compound 27]
- G = Greening effect (Tomato): 2 (31-60%)
- I = Interligular or internodal length reduction (Tomato): 2 (31-60%)
- R = Retardation (Tomato): 2 (31-60%)
- G = Greening effect (Wheat): 2 (31-60%)
- I = Interligular or internodal length reduction (Wheat): 2 (31-60%)
- R = Retardation (Wheat): 2 (31-60%)
- T = Tillering or side shooting (Barley): 2*

SMILES: CCCCCCC#CC(O)(c1cncnc1)C(C)(C)C (centres unmarked) [Compound 33]
- G = Greening effect (Tomato): 1 (10-30%)
- I = Interligular or internodal length reduction (Tomato): 1 (10-30%)
- R = Retardation (Tomato): 2 (31-60%)
- G = Greening effect (Wheat): 1 (10-30%)
- I = Interligular or internodal length reduction (Wheat): 1 (10-30%)
- T = Tillering or side shooting (Barley): 2 (31-60%)
